Tests used:
[1] = Sugar (HFCS) substitution in orange soft drink, triangular test by calibrated panel; format: in vivo; details: orange soft drink sweetened with HFCS
Method: A reference orange soft drink sweetened with high fructose corn syrup (HFCS) was prepared, using the ingredients listed in Table 9 (Formula 1). All the percentages in the table are by weight.
For preparing the beverages, the following process was followed. The high fructose corn syrup was weighed in a 1 L beaker. The remaining minor ingredients (sodium benzoate, potassium sorbate, citric acid, orange soda colour and orange soda flavour) were separately weighed in small beakers, and water was added to each of the small beakers and mixed until solubilizing each ingredient. Once dissolved, all those minor ingredients were added to the 1 L beaker with the HFCS. The obtained solution was thoroughly mixed and water was added gradually to 1 Kg.
For assaying the possible substitution of HFCS with NHDC and with the composition of the present invention (Example B), a 0.1% mother solution of NHDC in water was prepared by gradually adding 0.1 g of NHDC to 99.9 g of water, mixing, and heating to 66° C. during 15 minutes until a yellowish solution was obtained; the solution was then left to cool to room temperature. […]
Maximum sugar substitution with NHDC was then determined by replacing increasing amounts of HFCS by NHDC and then passing the reference and the prototype through a triangular test by a calibrated panel.

[2] = Masking bitterness of paracetamol, calibrated test panel, equibitter solution; format: in vivo; details: for Masking effect (real): 5000 ppm paracetamol
Method: The bitter masking effect against paracetamol was assayed. The anti-bittering effect was measured as a dose-response profile vs. a solution of paracetamol.
The following substances were assayed: NHDC alone, gamma-cyclodextrin alone and compositions comprising NHDC and gamma-cyclodextrin in a molar ratio 1:3 (Example B), 1.5:1 (Example C), 1:6 (Example D) and 1:10 (Example E).
For evaluating the masking effect of each substance, several aqueous solutions were prepared, each containing 5000 ppm of paracetamol and different concentrations of the tested substance, namely, 5, 25, 50, 75 and 100 ppm.
A calibrated test panel compared each solution with several solutions of paracetamol in water at different concentrations, and determined the equibitter paracetamol solution. The equibitter solution was calculated as the average of all the evaluations of the panel.
The masking effect was then calculated from the reference amount of paracetamol contained in each tested solution (5000 ppm) and the amount of paracetamol in the equibitter solution, using the following formula (Formula III): […]
For calculating the masking synergies between gamma-cyclodextrin and NHDC, first, for each amount of the combination (Examples A-E), using the molecular weight of each component, the amounts of gamma-cyclodextrin and NHDC contained therein were calculated. For example, 100 ppm of Example B contain 13.61 ppm of NHDC and 86.39 ppm of gamma-cyclodextrin. Then, the antibittering contribution of each component in the composition was calculated, on the basis of the data of Table 13. For example, 13.61 ppm of NHDC provide 9.44% masking effect and 86.39 ppm of gamma-cyclodextrin provide 5.46% masking effect (the antibittering effects for each specific concentration was calculated by interpolation of the data points in Table 13). Therefore, the expected masking effect is calculated as the sum of the contributions of each component. For example, the expected masking effect of 100 ppm of Example B is 14.90 (i.e., 9.44 plus 5.46).
Finally, the masking synergy is calculated using Formula IV: […]
The masking effect of Examples C (NHDC:gCD 1.5:1), D (NHDC:gCD 1:6) and E (NHDC:gCD 1:10) was also evaluated. Aqueous solutions were prepared, each one of them containing 5000 ppm of paracetamol and different concentrations of each one of the tested formulations Ex. C-E, namely, 25 and 50 ppm. Results are disclosed in Tables 15 to 17.

COc1ccc(CCC(=O)c2c(O)cc(O[C@@H]3O[C@H](CO)[C@@H](O)[C@H](O)[C@H]3O[C@@H]3O[C@@H](C)[C@H](O)[C@@H](O)[C@H]3O)cc2O)cc1O [NHDC, 1-[4-[[2-O-(6-Deoxy-α-L-mannopyranosyl)-β-D-glucopyranosyl]oxy]-2,6-dihydroxyphenyl]-3-(3-hydroxy-4-methoxyphenyl)propan-1-one]
Amount needed to obtain 10% sugar substitution [1]: 10 ppm | Maximum sugar substitution without any noticeable difference in a triangular test [1]: 10% | Equibitter paracetamol solution ([2]; 5000 ppm paracetamol + 100 ppm tested substance): 3266.7 ppm | Masking effect (real) ([2]; tested substance 5 ppm): 6.00% | Masking effect (real) ([2]; tested substance 25 ppm): 14.00% | Masking effect (real) ([2]; tested substance 50 ppm): 15.33% | Masking effect (real) ([2]; tested substance 75 ppm): 27.00% | Masking effect (real) ([2]; tested substance 100 ppm): 34.67%

Reference: patent US20230054887A1, “SWEETENING AND TASTE-MASKING COMPOSITIONS, PRODUCTS AND USES THEREOF” (HEALTHTECH BIO ACTIVES, S.L.U., priority 2017, published 2023)
